{"source": "patent US5420106A", "about": "“Method and composition having enhanced alpha-hydroxy acid skin permeation and retention” (priority 1994, dated 1995)", "key": {"[1]": {"assay": "Skin retention of lactic acid (epidermis and dermis analysis after the permeation study)", "type": "in vitro ADME", "protocol": "(§1) Franz Diffusion Cell Study at Finite Dose\n(§2) For each formulation, skin sections were mounted on three or four flat flange Franz diffusion cells (FDC 400) with a diffusional cross-section area of 1.2cm^2. About 60 to 100 mg of test formulation were placed on the stratum corneum surface of the skin in the donor compartment and the receptor compartment was filled with about 11 ml of normal saline. The receptor fluid was well stirred throughout the experiment and the temperature was maintained by circulating water at 37° C. through the water jacket of the diffusion cells. Precisely 500 μl of receptor fluid was collected in a scintillation vial at appropriate intervals for a period of 68 hours. […] The receptor fluid was replenished after each withdrawal. All the receptor fluid and replenished fluids were filtered using a 0.22 μm filter and thoroughly degassed before use.\nCotton swabs were used during the rinsing procedure to recover the remaining surface dose. A circular incision was made in the skin exposed to the formulation. The epidermis at the circular edge was slowly lifted using a pointed flat spatula, and then separated from the dermis using forceps. The epidermis and dermis were transferred to previously weighed teflon tape and dried in a desiccator for 72 hours until a constant weight was obtained. […]"}, "[2]": {"conditions": "cited from earlier work"}, "[3]": {"conditions": "in vivo; cited from earlier work"}, "[4]": {"conditions": "hydrated skin; cited from earlier work"}, "[5]": {"assay": "In-vitro skin permeation study of lactic acid, Franz diffusion cell at finite dose (14C-lactic acid)", "type": "in vitro ADME", "protocol": "The skin permeation test was conducted by the following procedure:\nIn-vitro Skin Permeation Study\nas §1, §2"}}, "data": [{"smiles": "CC(O)C(=O)O", "note": "(centres unmarked) [ammonium lactate]", "values": [{"measurement": "skin retention of lactic acid / α-hydroxy acid (general finding)", "setting": "[1]", "result": "excellent lactic acid skin permeation and skin retention profiles"}, {"measurement": "skin retention of lactic acid", "setting": "[1]; pH 4.6", "result": "excellent skin retention"}, {"measurement": "potency for other dermatological disorders", "setting": "[2]; U.S. Pat. No. 5,091,171, topical ammonium salts", "result": "lost most of its potency"}, {"measurement": "effectiveness in treating dermatological disorders", "setting": "[2]; topical", "result": "very effective"}, {"measurement": "skin irritation", "setting": "[3]", "result": "skin irritant to a degree which many patients find unacceptable"}]}, {"smiles": "CC(C)NCC(O)COc1cccc2ccccc12", "note": "(centres unmarked) [propranolol]", "values": [{"measurement": "permeation or permeation rate on hydration of skin", "setting": "[4]", "result": "decreases the permeation rate by two fold"}]}, {"smiles": "CC(C)[C@H](N)C(=O)O", "note": "[valine]", "values": [{"measurement": "enhancement of skin permeation of lactic acid by valine", "setting": "[5]", "result": "does not enhance skin permeation of lactic acid"}]}, {"smiles": "CCCCCCCCCCCCCC(=O)OC(C)C", "note": "[IPM, isopropyl myristate]", "values": [{"measurement": "skin permeation enhancer effect for lactic acid", "setting": "[5]; FIGS. 1-2, IPM vs PGD in lysine lactate lotions", "result": "better skin permeation enhancer for lactic acid than PGD"}]}]}
